Tested on: IL-1β production in PMA-differentiated THP-1 cells
Test: IL-1β production in PMA-differentiated THP-1 cells stimulated with gramicidin (hTHP-1 assay, 2% fetal bovine serum; Procedures 1-3)
Format: cell-based, human
Details: Homo sapiens, THP-1, Table B3; hTHP-1 assay containing 2% fetal bovine serum, gramicidin stimulation, IL-1β readout; read-out: hTHP-1 IC50
How it was run: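 IL-1β released into supernatants was read by HTRF after 2 h gramicidin (5 μM) challenge. Before challenge, compounds (3-fold dilutions, top 100 μM, 0.37% DMSO) were given 1 h on THP-1 cells differentiated with PMA (20 ng/ml, 16-18 h) and held in 2% FBS medium.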

SMILES	IC50 [nM]
CNCc1csc(S(N)(=O)=NC(=O)Nc2c3c(cc4c2CCC4)CCC3)c1F (stereo not shown) [Example 779, 3-Fluoro-N′-((1,2,3,5,6,7-hexahydro-s-indacen-4-yl)carbamoyl)-4-((methylamino)methyl)thiophene-2-sulfonimidamide]	40 to 200
NS(=O)(=NC(=O)Nc1c2c(cc3c1CCC3)CCC2)c1cnc(C(O)(COCCOCc2ccccc2)COCCOCc2ccccc2)s1 (stereo not shown) [Example 780, N′-((1,2,3,5,6,7-hexahydro-s-indacen-4-yl)carbamoyl)-2-(7-hydroxy-1,13-diphenyl-2,5,9,12-tetraoxatridecan-7-yl)thiazole-5-sulfonimidamide]	1000 to 5000
NS(=O)(=NC(=O)Nc1c2c(cc3c1CC3)CCC2)c1cc2c(s1)CCNC2C(F)F (stereo not shown) [Example 781, 4-(Difluoromethyl)-N′-((2,4,5,6-tetrahydro-1H-cyclobuta[f]inden-3-yl)carbamoyl)-4,5,6,7-tetrahydrothieno[3,2-c]pyridine-2-sulfonimidamide]	40 to 200
COc1cc(-c2ccc3c(c2NC(=O)N=[S@@](N)(=O)c2cnc(C(C)(C)O)s2)CCC3)ccn1 [Example 784, (R)-2-(2-hydroxypropan-2-yl)-N′-((5-(2-methoxypyridin-4-yl)-2,3-dihydro-1H-inden-4-yl)carbamoyl)thiazole-5-sulfonimidamide]	8 to 40
NS(=O)(=NC(=O)Nc1c2c(cc3c1CC3)CCC2)c1nn(C(F)F)cc1F (stereo not shown) [compound 734, 1-(Difluoromethyl)-4-fluoro-N′-((2,4,5,6-tetrahydro-1H-cyclobuta[f]inden-3-yl)carbamoyl)-1H-pyrazole-3-sulfonimidamide]	40 to 200
CC(C)n1nc(S(N)(=O)=NC(=O)Nc2c3c(cc4c2C(=O)CC4)CCC3)cc1CO (stereo not shown) [compound 739, 5-(Hydroxymethyl)-1-isopropyl-N′-((3-oxo-1,2,3,5,6,7-hexahydro-s-indacen-4-yl)carbamoyl)-1H-pyrazole-3-sulfonimidamide]	1000 to 5000
C#CCCC1(CCC(=O)N(C)Cc2ccc([S@@](N)(=O)=NC(=O)Nc3c4c(cc5c3CCC5)CCC4)cc2)N=N1 [compound 771]	200 to 1000
CN1CCC(c2ccc(S(N)(=O)=NC(=O)Nc3c4c(cc5c3CCC5)CCC4)c(F)c2)C1 (stereo not shown) [compound 776, 2-Fluoro-N′-((1,2,3,5,6,7-hexahydro-s-indacen-4-yl)carbamoyl)-4-(1-methylpyrrolidin-3-yl)benzenesulfonimidamide]	5000 to 30000

Same assay, conditions: Homo sapiens, THP-1, hTHP-1 assay containing 2% fetal bovine serum, Table B2, class symbols; read-out: IC50

SMILES	IC50 [nM]
CC(OC(F)F)c1ccc(S(N)(=O)=NC(=O)Nc2c3c(cc4c2CCC4)CCC3)cc1 (stereo not shown) [compound 452, 4-(1-(Difluoromethoxy)ethyl)-N′-((1,2,3,5,6,7-hexahydro-s-indacen-4-yl)carbamoyl)benzenesulfonimidamide]	1000 to 5000
CNCC(C)(C)c1ccc(S(N)(=O)=NC(=O)Nc2c3c(cc4c2CCC4)CCC3)cc1 (stereo not shown) [compound 496, N′-((1,2,3,5,6,7-hexahydro-s-indacen-4-yl)carbamoyl)-4-(2-methyl-1-(methylamino)propan-2-yl)benzenesulfonimidamide]	1000 to 5000
CNCc1csc(S(N)(=O)=NC(=O)Nc2c3c(cc4c2CCC4)CCC3)c1 (stereo not shown) [compound 672, N′-((1,2,3,5,6,7-hexahydro-s-indacen-4-yl)carbamoyl)-4-((methylamino)methyl)thiophene-2-sulfonimidamide]	40 to 200

Same assay, conditions: Table B3; hTHP-1 assay containing 2% fetal bovine serum, gramicidin stimulation, IL-1β readout; read-out: hTHP-1 IC50

SMILES	IC50 [nM]
CC(NC1CCC1)c1ccc(S(N)(=O)=NC(=O)Nc2c3c(cc4c2CC4)CCC3)c(F)c1 (stereo not shown) [Example 846, (R/S, S)-4-(1-(cyclobutylamino)ethyl)-2-fIuoro-N′-((2,4,5,6-tetrahydro-1H-cyclobuta[f]inden-3-yl)carbamoyl)benzenesulfonimidamide]	1000 to 5000
NS(=O)(=NC(=O)Nc1c2c(cc3c1CCC3)CCC2)c1ccc(C2CCN2)cc1 (stereo not shown) [Example 863, (S/R, R)-4-(azetidin-2-yl)-N′-((1,2,3,5,6,7-hexahydro-s-indacen-4-yl)carbamoyl)benzenesulfonimidamide]	200 to 1000
